Laboratory results taken from patent US20230105212A1, “BIPHENYL DERIVATIVE INHIBITOR, PREPARATION METHOD THEREFOR AND USE THEREOF” (SHANGHAI HANSOH BIOMEDICAL CO., LTD., priority 2020, published 2023).

Key:
human PD-1/PD-L1 binding = biological target: T1, human PD-1/PD-L1 binding (Homo sapiens, UniProt Q9NZQ7); assay: Inhibition of human PD-1/PD-L1 binding (TR-FRET/HTRF); details: TR-FRET, PD-L1-His and PD-1-Fc; read-out: PD-1/PD-L1 binding IC50
T1 construct: PD-L1-His protein (19 to 238 amino acids) (Abcam #ab167713); purchased Abcam (PD-L1-His); R&D (PD-1-Fc) ab167713; 1086-PD
T1 sequence (Q9NZQ7 19-238): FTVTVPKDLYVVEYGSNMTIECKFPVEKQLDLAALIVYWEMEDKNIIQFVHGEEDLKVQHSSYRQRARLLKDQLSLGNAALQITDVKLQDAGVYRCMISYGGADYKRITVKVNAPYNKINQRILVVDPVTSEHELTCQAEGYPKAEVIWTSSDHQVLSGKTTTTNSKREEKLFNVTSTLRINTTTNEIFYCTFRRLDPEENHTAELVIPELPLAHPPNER
Excerpt: Test Embodiment 1: Test of Inhibitory Effect of the Compounds of the Present Disclosure on Human PD-1/PD-L1 Binding
Experimental purpose: The purpose of this test embodiment was to measure the inhibitory activity of the compounds on human PD-1/PD-L1 binding.
Experimental reagents: Binding Domain diluent buffer was purchased from Cisbio Company, Cat. No.: 62DLBDDF; MAb Anti-6HIS Eu cryptate Gold was purchased from Cisbio Company with the article number of 61HI2KLA; PAb Anti Human IgG-XL665 was purchased from Cisbio Company with the article number of 61HFCXLB; PD-L1-His protein was purchased from Abcam Company with the article number of ab167713; PD-1-Fc protein was purchased from R&D Company with the article number of 1086-PD; Detection buffer was purchased from Cisbio Company with the article number of 62SDBRDD; 384-well plate was purchased from PerkinElmer Company with the article number of 6007290.
Experimental method: In order to test the inhibitory activity of the compounds on human PD-1/PD-L1 binding, the method of time-resolved fluorescence resonance energy transfer (TR-FRET) was used in this experiment to test the inhibition of the compounds on human PD-1/PD-L1 binding, and the half inhibitory concentration IC50 of inhibitory activity of the compounds on human PD-1/PD-L1 binding was obtained.
This experiment was performed in a 384-well plate with a total reaction volume of 20 μL. Compounds were diluted to different concentrations (10 μM or 1 μM starting, 3-fold dilution, 11 doses) using assay buffer Binding Domain diluent buffer (Cisbio #62DLBDDF), then PD-L1-His protein (19 to 238 amino acids) (Abcam #ab167713) was diluted to 10 nM with assay buffer, and PD-1-Fc protein (25 to 167 amino acids) (R&D #1086-PD) was diluted to 20 nM with assay buffer; the compound, PD-L1 protein and PD-1 protein were added to a 384-well plate respectively, and the total volume was 10 μL, then centrifuged at 1000 rpm for 1 minute to mix well, and incubated for 60 minutes at room temperature. Then 10 μL of a mixed solution of MAb Anti-6HIS Eu cryptate Gold (Cisbio #61HI2KLA) and PAb Anti Human IgG-XL665 (Cisbio #61HFCXLB) diluted by HTRF Detection buffer was added to each well, and centrifuged at 1000 rpm for 1 minute to mix well. The reaction was carried out at room temperature for 3 hours or at 4° C. overnight, then a microplate reader (BioTek Synergy H1) was put into for reading; the excitation wavelength was 340 nm, and the emission wavelengths were 620 nm and 665 nm.
The ratio of fluorescence readings at 620 nm and 665 nm (665 nm/620 nm) was calculated, and the inhibition rate was calculated.

[1] = biological target: T2, PD-L1 protein on the surface of MC38-hPDL1 tumor cells (Homo sapiens, UniProt Q9NZQ7); assay: Induction of endocytosis of PD-L1 on the surface of tumor cells (flow cytometry); type: cell-based; details: 16 hours incubation; for Emax: MC38-hPDL1 cells, read-out: MC38 maximum endocytosis rate; for IC50: inducing endocytosis of PD-L1, MC38-hPDL1 cells, read-out: MC38 IC50
T2 construct: expressed in transfected cells; host or cells: MC38-hPDL1 (mouse colon cancer cells)
T2 sequence (Q9NZQ7 19-290): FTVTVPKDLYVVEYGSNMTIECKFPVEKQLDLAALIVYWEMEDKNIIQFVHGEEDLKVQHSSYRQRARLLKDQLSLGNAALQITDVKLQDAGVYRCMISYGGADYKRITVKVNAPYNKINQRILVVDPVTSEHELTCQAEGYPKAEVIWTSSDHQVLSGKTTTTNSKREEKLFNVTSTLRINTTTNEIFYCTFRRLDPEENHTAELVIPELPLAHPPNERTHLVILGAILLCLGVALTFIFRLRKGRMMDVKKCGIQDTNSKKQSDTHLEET
Excerpt: Test Embodiment 2. Test of the Activity of Compounds of the Present Disclosure on Inducing the Endocytosis of PD-L1 Protein on the Surface of Tumor Cells
Experimental purpose: The purpose of this test embodiment was to test the activity of the compound on inducing the endocytosis of PD-L1 on the surface of tumor cells.
Experimental method: In order to test the activity of the compound on inducing the endocytosis of PD-L1, in this experiment, the activity of the compound on inducing the endocytosis of PD-L1 was tested by detecting the change degree of PD-L1 on the tumor cell surface with fluorescently labeled anti-PD-L1 antibody, and the IC50 of activity of the compound on inducing the endocytosis of PD-L1 was obtained.
The mouse colon cancer cells MC38-hPDL1 with high expression of hPD-L1 were collected, and adjusted to a suitable density and plated in a 24-well plate, and placed in a 37° C., 5% CO2 incubator to adhere overnight. Compounds were prepared into different concentrations by medium and added to a 24-well plate, and a vehicle control well was set up. After the cells were incubated in a 37° C., 5% CO2 incubator for 16 hours, the 24-well plate was taken out, and MC38-hPDL1 cells with different treatments in the plate were collected. After the cells were washed once with FACS buffer (PBS containing 0.5% BSA), and the cells were prepared to an appropriate density with FACS buffer. PE Mouse Anti-Human CD274 antibody (BD Pharmingen #557924) was added, and the cells were shaken at room temperature and incubated for 30 minutes without light, then the cells were washed twice with FACS buffer, resuspended in 100 μL of PBS, and a flow cytometer was used to detect the fluorescent signal on the cell surface, and the isotype control was set as a negative control.
The endocytosis rate of the compounds was calculated from the fluorescence signals of different treatment groups, and the compound concentration and endocytosis rate were fitted by nonlinear regression using GraphPad Prism software, and IC50 values were obtained, as shown in Table 2.

| Structure (SMILES) | IC50 (human PD-1/PD-L1 binding) | Emax [1] | IC50 [1] |
| --- | --- | --- | --- |
| COc1cc(-c2cccc(-c3cccc(NC(=O)c4nc5c(n4C)CCN(C)C5)c3Cl)c2Cl)cnc1CN1CC(F)C1 [Embodiment 163, N-(2,2′-Dichloro-3′-(6-((3-fluoroazetidin-1-yl)methyl)-5-methoxypyridin-3-yl)-[1,1′-biphenyl]-3-yl)-1,5-dimethyl-4,5,6,7-tetrahydro-1H-imidazo[4,5-c]pyridine-2-carboxamide] | 7.7 nM |  |  |
| CNC(=O)CNCc1ccc(-c2cccc(-c3cccc(NC(=O)c4nc5c(n4C)CCN(C)C5)c3Cl)c2Cl)nc1OC [Embodiment 140, N-(2,2′-Dichloro-3′-(6-methoxy-5-(((2-(methylamino)-2-carbonylethyl)amino)methyl)pyridin-2-yl)-[1,1′-biphenyl]-3-yl)-1,5-dimethyl-4,5,6,7-tetrahydro-1H-imidazo[4,5-c]pyridine-2-carboxamide] | 9.1 nM |  |  |
| Cc1c(NC(=O)c2ccc(CN3CC[C@@H](F)C3)cn2)cccc1-c1cccc(NC(=O)c2nc3c(n2C)CCN(C)C3)c1Cl [Embodiment 106, (R)—N-(2-Chloro-3′-(5-((3-fluoropyrrolidin-1-yl)methyl)picolinamido)-2′-methyl-[1,1′-biphenyl]-3-yl)-1,5-dimethyl-4,5,6,7-tetrahydro-1H-imidazo[4,5-c]pyridine-2-carboxamide] | 6.5 nM |  |  |
| COc1ccnc(NCc2cnc(C(=O)Nc3cccc(-c4cccc(NC(=O)c5nc6c(n5C)CCN(C)C6)c4Cl)c3C)cc2OC)c1 [Embodiment 12, N-(2-Chloro-3′-(4-methoxy-5-(((4-methoxypyridin-2-yl)amino)methyl)picolinamido)-2′-methyl-[1,1′-biphenyl]-3-yl)-1,5-dimethyl-4,5,6,7-tetrahydro-1H-imidazo[4,5-c]pyridine-2-carboxamide] |  | 84% | 6.5 nM |
| COc1cc(C(=O)Nc2cccc(-c3cccc(NC(=O)c4nc5c(n4C)CCN(C)C5)c3Cl)c2C)ncc1CN1CC2(COC2)CC1=O [Embodiment 104, N-(2-Chloro-3′-(4-methoxy-5-((7-carbonyl-2-oxa-6-azaspiro[3.4]octan-6-yl)methyl)picolinamido)-2′-methyl-[1,1′-biphenyl]-3-yl)-1,5-dimethyl-4,5,6,7-tetrahydro-1H-imidazo[4,5-c]pyridine-2-carboxamide] | 9.1 nM |  |  |
| COc1cc(NCc2cnc(C(=O)Nc3cccc(-c4cccc(NC(=O)c5nc6c(n5C)CCN(C)C6)c4Cl)c3C)cc2C2CC2)ccn1 [Embodiment 44, N-(2-Chloro-3′-(4-cyclopropyl-5-(((2-methoxypyridin-4-yl)amino)methyl)picolinamido)-2′-methyl-[1,1′-biphenyl]-3-yl)-1,5-dimethyl-4,5,6,7-tetrahydro-1H-imidazo[4,5-c]pyridine-2-carboxamide] |  | 88% | 4.2 nM |
| COc1nc(OCc2cccc(-c3cccc(NC(=O)c4nc5c(n4C)CCN(C)C5)c3Cl)c2C)nc(OC)c1CN1CCCC[C@H]1C(=O)O [Embodiment 170, (S)-1-((2-((2′-Chloro-3′-(1,5-dimethyl-4,5,6,7-tetrahydro-1H-imidazo[4,5-c]pyridine-2-carboxamido)-2-methyl-[1,1′-biphenyl]-3-yl)methoxy)-4,6-dimethoxypyrimidin-5-yl)methyl)piperidine-2-carboxylic Acid] | 4.1 nM |  |  |
| COc1cc(C(=O)Nc2cccc(-c3cccc(NC(=O)c4nc5c(n4C)CCN(C)C5)c3Cl)c2C)ncc1CN1CC[C@@H](F)C1 [Embodiment 25, (R)—N-(2-Chloro-3′-(5-((3-fluoropyrrolidin-1-yl)methyl)-4-methoxypicolinamido)-2′-methyl-[1,1′-biphenyl]-3-yl)-1,5-dimethyl-4,5,6,7-tetrahydro-1H-imidazo[4,5-c]pyridine-2-carboxamide] |  | 95% | 0.9 nM |
| COc1cc(-c2cccc(-c3cccc(NC(=O)c4nc5c(n4C)CCN(C)C5)c3Cl)c2Cl)ncc1CNC1CCOCC1 [Embodiment 57, N-(2,2′-Dichloro-3′-(4-methoxy-5-(((tetrahydro-2H-pyran-4-yl)amino)methyl)pyridin-2-yl)-[1,1′-biphenyl]-3-yl)-1,5-dimethyl-4,5,6,7-tetrahydro-1H-imidazo[4,5-c]pyridine-2-carboxamide] | 3 nM |  |  |
| COc1cc(C(=O)Nc2cccc(-c3cccc(NC(=O)c4nc5c(n4C)CCN(C)C5)c3Cl)c2C)ncc1CNCC1(F)CCOCC1 [Embodiment 19, N-(2-Chloro-3′-(5-((((4-fluorotetrahydro-2H-pyran-4-yl)methyl)amino)methyl)-4-methoxypicolinamido)-2′-methyl-[1,1′-biphenyl]-3-yl)-1,5-dimethyl-4,5,6,7-tetrahydro-1H-imidazo[4,5-c]pyridine-2-carboxamide] |  | 85% | 7 nM |
| COc1nc(-c2cccc(-c3cccc(NC(=O)c4nc5c(n4C)CCN(C)C5)c3Cl)c2Cl)ccc1CN1CCN(C(=O)C(F)(F)F)CC1 [Embodiment 202, N-(2,2′-Dichloro-3′-(6-methoxy-5-((4-(2,2,2-trifluoroacetyl)piperazin-1-yl)methyl)pyridin-2-yl)-[1,1′-biphenyl]-3-yl)-1,5-dimethyl-4,5,6,7-tetrahydro-1H-imidazo[4,5-c]pyridine-2-carboxamide] |  | 89% |  |
| COc1cc(NCc2cnc(C(=O)Nc3cccc(-c4cccc(NC(=O)c5nc6c(n5C)CCN(C(C)C)C6)c4Cl)c3C)cc2OC)ccn1 [Embodiment 70, N-(2-Chloro-3′-(4-methoxy-5-(((2-methoxypyridin-4-yl)amino)methyl)picolinamido)-2′-methyl-[1,1′-biphenyl]-3-yl)-5-isopropyl-1-methyl-4,5,6,7-tetrahydro-1H-imidazo[4,5-c]pyridine-2-carboxamide] |  | 81% | 4 nM |
| COc1cc(C(=O)Nc2cccc(-c3cccc(NC(=O)c4nc5c(n4C)CCN(C)C5)c3Cl)c2C)ncc1CNCc1ncccc1OC [Embodiment 13, N-(2-Chloro-3′-(4-methoxy-5-((((3-methoxypyridin-2-yl)methyl)amino)methyl)picolinamido)-2′-methyl-[1,1′-biphenyl]-3-yl)-1,5-dimethyl-4,5,6,7-tetrahydro-1H-imidazo[4,5-c]pyridine-2-carboxamide] |  | 87% | 6.6 nM |
| COc1nc(-c2cccc(-c3cccc(NC(=O)c4nc5c(n4C)CCN(C)C5)c3Cl)c2Cl)ccc1CN1CCN(S(C)(=O)=O)CC1 [Embodiment 204, N-(2,2′-Dichloro-3′-(6-methoxy-5-((4-(methylsulfonyl)piperazin-1-yl)methyl)pyridin-2-yl)-[1,1′-biphenyl]-3-yl)-1,5-dimethyl-4,5,6,7-tetrahydro-1H-imidazo[4,5-c]pyridine-2-carboxamide] |  | 89% |  |
